Tested on: CSF proteins
Experiment: LC/MSMS protein expression in CSF (COG0102)
Format: in vivo, human
Method: Plasma and CSF protein expression were measured by LC/MSMS in samples drawn prior to dosing (Day 0) and at end of dosing (Day 28) and were compared within each patient and between dosing groups.
This trial (ClinicalTrials.gov NCT02907567) was a randomized, double-blind, placebo-controlled clinical trial in mild to moderate Alzheimer's patients (MMSE 18-26) (See FIG. 1 for clinical trial design). The trial was conducted at six sites in Australia. Patients were randomized into placebo (n=5) or CT1812-treated groups: 90 mg (n=4), 280 mg (n=5) or 560 mg (n=5) and treated once daily for 28 days. Clinical chemistry was done at Sydpath (Sydney, AU). Pharmacokinetics were done at CPR Pharma Services (Adelaide, AU). Cerebrospinal fluid samples were taken at screening and day 21-28 of treatment and aliquoted. Plasma samples were taken at screening or Day 1 (one sample) and day 14-28, then spun down to separate plasma and aliquoted. One set of CSF samples was analyzed for Alzheimer's disease biomarkers; protein measurements (Aβ42, A1340, total tau, tau phosphorylated at threonine 181 (phosphorylated tau), NFL and neurogranin) were performed using commercially available ELISA assays from Fujirebio according to the manufacturer's instructions (INNOTEST β-AMYLOID(1-42), INNOTEST β-AMYLOID(1-40), INNOTEST hTau Ag, INNOTEST PHOSPHO-TAU(181P), Uman Diagnostics NFL assay). Neurogranin was measured with a sandwich ELISA method using antibodies Ng2 and Ng22 developed at the University of Gotteborg (Kvartsberg et al. 2015). Identical aliquots of CSF, and plasma were analyzed for protein expression changes via LC/MSMS at Caprion (see below).
Matched screening and day 28 plasma and CSF samples were analyzed by LC/MSMS at Caprion Biosciences Inc. Plasma was depleted of high and medium abundance proteins using a commercial immunoaffinity column, IgY14-Supermix (Sigma). CSF was depleted of only 14 high abundance proteins using MARS-14 (Agilent). All samples were digested with trypsin and plasma samples were fractionated by strong cation exchange chromatography (3 fractions). Both CSF and plasma samples were analyzed using a NanoAcquity UPLC coupled to a Q Exactive MS. […] The 12 most intense peaks per survey scan with charge states 2-8 fragmented and scanned with a mass range from 200 to 2000 m/z at a resolution of 17,500. Raw spectrometer data files for each LC-MS run were aligned independently using Elucidator software (Rosetta Biosoftware). The MS/MS spectra were matched to corresponding peptide sequences found in the Uniprot Human protein database (January 2017) using Mascot software, allowing for up to 2 missed cleavages, a peptide tolerance of 20 ppm, and an MS/MS tolerance of 0.05 Da. Outlier detection was performed by determining the average log-intensity of all isotope groups (IG) over injection order for all samples. Samples with an average value greater than 2 standard deviations from the mean were flagged for investigation. Following data transformation and normalization, expression analysis of the identified isotope groups was performed and the statistical significance of each comparison was assessed with a parametric, linear mixed model (LMM) and a non-parametric Wilcoxon ranked test (ranked p-values). Expression analysis was also performed at the peptide and protein levels, which used the same methodology as above, but applied to peptide/protein intensities, derived by rolling-up the corresponding isotope group intensities. Isotope groups not detected in at least half of the samples in either of the two groups being compared were not used for the roll-up.
Table 5 lists 30 proteins that were detected with at least 20% change in placebo vs. treated 28 days vs screening. The following values are reported for each statistical analysis performed: FC: Fold change calculated from the protein normalized intensity. FC>10 or <0.1 are unusually large and may be artifacts. […]

[1] = 28 days vs screening, fold change

For `CC(C)(C)Oc1cc(CCC(C)(C)N2Cc3ccc(S(C)(=O)=O)cc3C2)ccc1O` [CT1812], the “Afamin, % change treated vs placebo” value was −19%, the “B3GNT9, % change treated vs placebo” value was 65% and the “CD14, % change treated vs placebo” value was 20%. For the same compound, the “Contactin 1, % change treated vs placebo” value was −23%, the “EphA4, % change treated vs placebo” value was −7% and the “FLNA, % change treated vs placebo” value was −51%. The “PDIA1, % change treated vs placebo” value was 21%, the “PDIA6, % change treated vs placebo” value was 44% and the “ROBO4, % change treated vs placebo” value was 62%. The “SERPINA4, % change treated vs placebo” value was −26%, the “Synaptotagmin, % change treated vs placebo” value was −59% and the “Tenascin C, % change treated vs placebo” value was −10%. For the same compound, the “Synaptotagmin-1 expression decreased, CT1812-treated vs. placebo” value (28 days) was 63%, the “AFM, FC (Treated)” value [1] was 0.94 and the “ANGPTL2, FC (Treated)” value [1] was 0.80. The “CAMK2D, FC (Treated)” value [1] was 1.04, the “CD14, FC (Treated)” value [1] was 1.18 and the “CNTN1, FC (Treated)” value [1] was 0.97. The “EFNB1, FC (Treated)” value [1] was 0.97, the “EPHA4, FC (Treated)” value [1] was 0.94 and the “FGFR3, FC (Treated)” value [1] was 1.12. For the same compound, the “GMFB, FC (Treated)” value [1] was 1.04, the “GNPTG, FC (Treated)” value [1] was 1.18 and the “HLA-H, FC (Treated)” value [1] was 1.22. The “ICAM2, FC (Treated)” value [1] was 1.11, the “LILRB4, FC (Treated)” value [1] was 1.11 and the “MBL2, FC (Treated)” value [1] was 0.75. For the same compound, the “MDGA2, FC (Treated)” value [1] was 1.01, the “NPPC, FC (Treated)” value [1] was 0.90 and the “P4HB, FC (Treated)” value [1] was 1.10. For the same compound, the “PDGFA, FC (Treated)” value [1] was 1.15, the “PDIA6, FC (Treated)” value [1] was 1.15 and the “RBP4, FC (Treated)” value [1] was 0.82. For the same compound, the “ROBO1, FC (Treated)” value [1] was 0.96, the “ROBO4, FC (Treated)” value [1] was 1.22 and the “SAA4, FC (Treated)” value [1] was 1.17. For the same compound, the “SEMA3F, FC (Treated)” value [1] was 1.40, the “SERPINA4, FC (Treated)” value [1] was 0.88 and the “SMPDL3B, FC (Treated)” value [1] was 0.97. The “SYT1, FC (Treated)” value [1] was 0.78, the “TNC, FC (Treated)” value [1] was 1.04 and the “TPI1, FC (Treated)” value [1] was 0.90. The “YWHAB, FC (Treated)” value [1] was 0.90, the “AFM, FC (Treated vs. Placebo)” value (28 days, fold change) was 0.84 and the “ANGPTL2, FC (Treated vs. Placebo)” value (28 days, fold change) was 0.69. For the same compound, the “CAMK2D, FC (Treated vs. Placebo)” value (28 days, fold change) was 1.22, the “CD14, FC (Treated vs. Placebo)” value (28 days, fold change) was 1.20 and the “CNTN1, FC (Treated vs. Placebo)” value (28 days, fold change) was 0.81. For the same compound, the “EFNB1, FC (Treated vs. Placebo)” value (28 days, fold change) was 0.93, the “EPHA4, FC (Treated vs. Placebo)” value (28 days, fold change) was 0.93 and the “FGFR3, FC (Treated vs. Placebo)” value (28 days, fold change) was 1.83. For the same compound, the “GMFB, FC (Treated vs. Placebo)” value (28 days, fold change) was 1.41, the “GNPTG, FC (Treated vs. Placebo)” value (28 days, fold change) was 1.26 and the “HLA-H, FC (Treated vs. Placebo)” value (28 days, fold change) was 1.37. The “ICAM2, FC (Treated vs. Placebo)” value (28 days, fold change) was 1.23, the “LILRB4, FC (Treated vs. Placebo)” value (28 days, fold change) was 1.25 and the “MDGA2, FC (Treated vs. Placebo)” value (28 days, fold change) was 0.71. For the same compound, the “NPPC, FC (Treated vs. Placebo)” value (28 days, fold change) was 0.91, the “P4HB, FC (Treated vs. Placebo)” value (28 days, fold change) was 1.21 and the “PDGFA, FC (Treated vs. Placebo)” value (28 days, fold change) was 1.27. For the same compound, the “PDIA6, FC (Treated vs. Placebo)” value (28 days, fold change) was 1.44, the “RBP4, FC (Treated vs. Placebo)” value (28 days, fold change) was 0.81 and the “ROBO1, FC (Treated vs. Placebo)” value (28 days, fold change) was 0.82. The “ROBO4, FC (Treated vs. Placebo)” value (28 days, fold change) was 1.62, the “SAA4, FC (Treated vs. Placebo)” value (28 days, fold change) was 1.35 and the “SEMA3F, FC (Treated vs. Placebo)” value (28 days, fold change) was 1.58. For the same compound, the “SERPINA4, FC (Treated vs. Placebo)” value (28 days, fold change) was 0.79, the “SMPDL3B, FC (Treated vs. Placebo)” value (28 days, fold change) was 1.24 and the “SYT1, FC (Treated vs. Placebo)” value (28 days, fold change) was 0.63. For the same compound, the “TNC, FC (Treated vs. Placebo)” value (28 days, fold change) was 0.91, the “TPI1, FC (Treated vs. Placebo)” value (28 days, fold change) was 0.87 and the “YWHAB, FC (Treated vs. Placebo)” value (28 days, fold change) was 0.81. The “MBL2, FC (Treated vs. Placebo)” value (28 days, fold change, FC>10 may be artifacts) was over 10, the “Afamin, With CT1812” value (direction of change) was “significantly decreased and ↓*” and the “B3GNT9, With CT1812” value (direction of change) was “dose dependently increased and ↑”. The “CD14, With CT1812” value (direction of change) was “significantly increased and ↑*”, the “Contactin 1, With CT1812” value (direction of change) was “significantly reduced and ↓*” and the “EphA4, With CT1812” value (direction of change) was “↓*”. The “FLNA, With CT1812” value (direction of change) was “trend for reduction and ↓”, the “PDIA1, With CT1812” value (direction of change) was “significantly increased and ↑*” and the “PDIA6, With CT1812” value (direction of change) was “significantly increased and ↑*”. The “ROBO4, With CT1812” value (direction of change) was “↑*”, the “SERPINA4, With CT1812” value (direction of change) was “significantly reduced and ↓*” and the “Synaptotagmin, With CT1812” value (direction of change) was “significantly decreased and reduction and decreased and ↓*”. For the same compound, the “Tenascin C, With CT1812” value (direction of change) was “↓*”, the “Afamin, % change baseline treated” value (treated group vs baseline) was −7% and the “B3GNT9, % change baseline treated” value (treated group vs baseline) was 55%. For the same compound, the “CD14, % change baseline treated” value (treated group vs baseline) was 18%, the “Contactin 1, % change baseline treated” value (treated group vs baseline) was −3% and the “EphA4, % change baseline treated” value (treated group vs baseline) was −6%. The “FLNA, % change baseline treated” value (treated group vs baseline) was −26%, the “PDIA1, % change baseline treated” value (treated group vs baseline) was 10% and the “PDIA6, % change baseline treated” value (treated group vs baseline) was 15%. For the same compound, the “ROBO4, % change baseline treated” value (treated group vs baseline) was 22%, the “SERPINA4, % change baseline treated” value (treated group vs baseline) was −13% and the “Synaptotagmin, % change baseline treated” value (treated group vs baseline) was −28%. The “Tenascin C, % change baseline treated” value (treated group vs baseline) was 4%.

From patent US20200338045A1, “ISOINDOLINE COMPOSITIONS AND METHODS FOR TREATING NEURODEGENERATIVE DISEASE” (priority 2017, published 2020)
